Experimental data reported in US12247008B2, “Multi-aziridine compound” (COVESTRO (NETHERLANDS) B.V., priority 2020, dated 2025).

Tested on: Rtkn-GFP
Experiment: ToxTracker genotoxicity assay, Rtkn-GFP reporter induction

CC1CN1CC(C)(C)OC(=O)NCCCCCCn1c(=O)n(CCCCCCNC(=O)OC(C)(C)CN2CC2C)c(=O)n(CCCCCCNC(=O)OC(C)(C)CN2CC2C)c1=O (stereo not drawn) [Ex. 1]
Rtkn induction level (with S9 rat liver extract, 3 h exposure and 24 h recovery, at 10% cytotoxicity): 1.0 fold
Rtkn induction level (with S9 rat liver extract, 3 h exposure and 24 h recovery, at 25% cytotoxicity): 1.1 fold
Rtkn induction level (with S9 rat liver extract, 3 h exposure and 24 h recovery, at 50% cytotoxicity): 1.3 fold
Rtkn induction level (without S9 rat liver extract, 24 h exposure, at 10% cytotoxicity): 1.1 fold
Rtkn induction level (without S9 rat liver extract, 24 h exposure, at 25% cytotoxicity): 1.1 fold
Rtkn induction level (without S9 rat liver extract, 24 h exposure, at 50% cytotoxicity): 1.3 fold
